Assay results taken from patent US10081632B2, “Substituted tetrahydropyrido[3′,2′:4,5]pyrrolo[1,2-α]pyrazine-2-carboxamides as RSK inhibitors” (Phoenix Molecular Designs, priority 2016, dated 2018).
Marks after values point to notes of the source that are not given here.

Legend:
[1] = tested on: T47D cells; assay: Monolayer growth inhibition, Alamar blue assay; assay type: cell-based, Human; conditions: T47D (ER/PR), 5 days, single dose on day 1
Text: (§1) In all instances a single dose was given on day 1 of the experiment.

[2] = tested on: SUM149-PTXR cells; assay: Monolayer growth inhibition, Alamar blue assay; assay type: cell-based, Human; conditions: SUM149-PTXR (TNBC, BRCA Mutant), 5 days, single dose on day 1
Text: as §1

[3] = tested on: MDA-MB-231 cells; assay: Combination with paclitaxel, monolayer growth (crystal violet); conditions: MDA-MB-231, 5 days
Protocol: 1×10^3 cells per well were seeded for a final volume of 200 μl per well and plates were incubated for 5 days at 37° C. in a humidified incubator with 5% CO2. Following the incubation period, cell survival was quantified by Alamar blue assay (Life Technologies). Briefly, media from each well was replaced with 100 μl of phosphate buffer saline (PBS, Life Technologies) and cells were incubated with 5% Alamar blue, which incorporates a propriety redox indicator that changes colour in response to metabolic activity, for up to 2 hours. During this period of incubation, the absorbance at 570 nm and 600 nm was measured at various time points, depending on the cell line or sample. Percent survival was calculated by comparing the absorbance ratio of the test well to the control well multiplied by 100%, as indicated in the following formula:
Following, plates were prepared for crystal violet staining. To begin, 100 μl of an 8% formaldehyde (Alfa Aesar) solution diluted in PBS was added to each well and plates were stored at 4° C. overnight. Next, the formaldehyde solution was discarded and the wells were washed with 200 μl ultrapure water per well three times. Following, 50 μl of a 0.5% crystal violet solution (0.5% w/v crystal violet (Alfa Aesar), 25% methanol (VWR)) was added to each well and incubated at room temperature for 20 minutes. The crystal violet solution was discarded and wells were washed with 200 μl ultrapure water per well three times. Next, 50 μl of a 5% sodium dodecyl sulphate (SDS) (Alfa Aesar) was added to each well and the absorbance at 590 nm was measured.

[4] = Solubility assessment, 20 mg/ml solution; assay type: physicochemical
Procedure, shortened: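 Compounds from 100 mM DMSO stocks diluted to 20 mg/ml in DMEM with FBS and penicillin/streptomycin, vortexed and checked visually for precipitate. One compound instead diluted to 20 mg/ml in phosphate-buffered saline, solution pH 2.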

[5] = tested on: HCC1937 cells; assay: Monolayer growth inhibition, Alamar blue assay; assay type: cell-based; conditions: Homo sapiens, HCC1937, HCC1937 (TNBC, BRCA Mutant), 5 days, single dose on day 1
Text: as §1

[6] = tested on: JIMT-1 cells; assay: Monolayer growth inhibition, Alamar blue assay; assay type: cell-based; conditions: Homo sapiens, JIMT-1, JIMT-1 (HER2), 5 days, single dose on day 1
Text: as §1

[7] = tested on: 4T1 cells; assay: Monolayer growth inhibition, Alamar blue assay; assay type: cell-based; conditions: Mus musculus, 4T1, 4T1 (TNBC), 5 days, single dose on day 1
Text: as §1

[8] = tested on: PC3 cells; assay: Monolayer growth inhibition, Alamar blue assay; assay type: cell-based; conditions: Homo sapiens, PC-3; PC3 (Prostate), 5 days, single dose on day 1
Text: as §1

[9] = biological target: RSK2 (Homo sapiens (Human), UniProt P51812); assay: Radioisotope kinase assay (SignalChem), RSK2; assay type: biochemical; conditions: 33P-ATP, 30° C., 15 minutes
Protocol: The assay conditions for the RSK2 kinase target were optimized to yield acceptable enzymatic activity. In addition, the assays were optimized to give high signal-to-noise ratio.
Radioisotope assays (SignalChem) were performed for the evaluation of the kinase target profiling and all assays were performed in a designated radioactive working area. The kinase targets were RSK1, RSK2, RSK3, RSK4 and MK2.
The assay was initiated by the addition of ^33P-ATP and the reaction mixture incubated at 30° C. for 15 minutes. After the incubation period, the assay was terminated by spotting 10 μL of the reaction mixture onto Multiscreen phosphocellulose P81 plate. The Multiscreen phosphocellulose P81 plate was washed 3 times for approximately 15 minutes each in a 1% phosphoric acid solution. The radioactivity on the P81 plate was counted in the presence of scintillation fluid in a Trilux scintillation counter.
Blank controls were set up for each target kinase which included all the assay components except the addition of the appropriate substrate (which was replaced with equal volume of assay dilution buffer). The corrected activity for each target kinase was determined by removing the blank control value.

[10] = tested on: MDA-MB-231 cells; assay: Soft agar growth inhibition assay; assay type: cell-based; conditions: Homo sapiens, MDA-MB-231; growth in soft agar (SA); read-out: MDA-MB-231 IC50 (SA)
[11] = tested on: MDA-MB-231 cells; assay: Immuno-oncology gene expression (HLA-DRA, CIITA, CD274 mRNA); assay type: cell-based, Human; conditions: Compound 16 2 or 4 uM, Compound 18 1, 2, or 4 uM
Text: (§2) A key feature of cancer is low immunogenicity. This can occur by several mechanisms that allow the cells to escape immune recognition. […] HLA-DRA is a member of MHC-II genes and CIITA is the master regulator of MHC II transcription. Thus it was surprising that CIITA, which would be expected to regulate MHC II gene expression, was not altered by RSK inhibition. […] HLA-DRA is important for immune recognition while PD-L1 is involved in immune checkpoints.

[12] = tested on: JIMT-1 cells; assay: as above; assay type: cell-based, Human
Text: as §2

[13] = tested on: MDA-MB-468 cells; assay: Soft agar growth inhibition assay; assay type: cell-based, Human; conditions: MDA-MB-468 (TNBC), 14-22 days
[14] = tested on: CD34+ cells; assay: Colony forming unit hematopoietic stem cell assay; assay type: cell-based, human

Chain of RSK2 (P51812 whole entry): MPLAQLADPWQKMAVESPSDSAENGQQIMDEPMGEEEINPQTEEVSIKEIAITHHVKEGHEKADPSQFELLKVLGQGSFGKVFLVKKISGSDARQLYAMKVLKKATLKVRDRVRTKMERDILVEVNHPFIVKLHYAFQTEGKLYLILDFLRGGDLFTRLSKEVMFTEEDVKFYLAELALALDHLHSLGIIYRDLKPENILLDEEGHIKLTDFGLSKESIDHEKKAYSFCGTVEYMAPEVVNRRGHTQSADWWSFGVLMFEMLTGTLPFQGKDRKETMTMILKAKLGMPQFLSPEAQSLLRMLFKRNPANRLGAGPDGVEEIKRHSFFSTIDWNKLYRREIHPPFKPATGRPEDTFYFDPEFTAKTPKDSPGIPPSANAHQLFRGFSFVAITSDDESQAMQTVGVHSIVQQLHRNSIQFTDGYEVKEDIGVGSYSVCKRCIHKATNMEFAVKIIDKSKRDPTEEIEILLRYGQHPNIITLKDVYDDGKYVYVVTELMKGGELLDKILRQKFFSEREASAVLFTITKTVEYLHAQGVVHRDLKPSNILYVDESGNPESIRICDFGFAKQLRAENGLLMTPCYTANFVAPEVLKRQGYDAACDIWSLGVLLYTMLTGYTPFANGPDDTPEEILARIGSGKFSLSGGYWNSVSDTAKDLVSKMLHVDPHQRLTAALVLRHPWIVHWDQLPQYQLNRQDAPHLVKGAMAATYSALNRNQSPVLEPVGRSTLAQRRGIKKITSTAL

## C[C@@H]1CNC(=O)c2cc3ccc(C(=O)Nc4cnn(Cc5ccc(N)cc5)c4)nc3n21 [Compound 18, (R)—N-(1-(4-aminobenzyl)-1H-pyrazol-4-yl)-9-methyl-6-oxo-6,7,8,9-tetrahydropyrido[3′,2′:4,5]pyrrolo[1,2-a]pyrazine-2-carboxamide]
[1]
  IC50: 3.6 ± 1.7 µM
[2]
  IC50: 2.1 ± 0.3 µM
[3]; Compound 18 0.2 μM with paclitaxel (0.3 nM)
  Coefficient of Drug Interaction (CDI): 1.6
[3]; Compound 18 0.4 μM with paclitaxel (0.3 nM)
  Coefficient of Drug Interaction (CDI): 1.2
[3]; Compound 18 0.8 μM with paclitaxel (0.3 nM), considered synergistic
  Coefficient of Drug Interaction (CDI): 0.8*
[3]; Compound 18 1.6 μM with paclitaxel (0.3 nM), considered synergistic
  Coefficient of Drug Interaction (CDI): 0.4*
[3]; Compound 18 3.1 μM with paclitaxel (0.3 nM), considered synergistic
  Coefficient of Drug Interaction (CDI): 0.2*
[3]; Compound 18 […] with paclitaxel (0.3 nM), considered synergistic
  Coefficient of Drug Interaction (CDI): 0.4*
[4]; 100 mM in DMSO diluted in DMEM growth media to 20 mg/ml
  Solubility, 20 mg/ml Solution: Soluble
[4]; DMSO stock diluted in DMEM, pH test strips
  pH of 20 mg/ml solution: 9
[5]
  IC50: 9.2 ± 1.1 µM
[6]
  IC50: 13.1 ± 6.4 µM
[7]
  IC50: 5.3 ± 2.5 µM
[8]
  IC50: 5.5 ± 0.5 µM
[9]
  IC50: 0.02 µM
[10]
  IC50: 0.1 µM
[11]
  CD274 (gene encoding PD-L1) levels: reduced levels of CD274
  HLA-DRA mRNA: elevated levels of HLA-DRA mRNA
  mRNA expression of CIITA: little effect
[12]
  HLA-DRA mRNA: elevated levels of HLA-DRA mRNA
  mRNA expression of CIITA: little effect
[12]; 1-20 uM
  CD274 (gene encoding PD-L1) levels: inhibited CD274
[13]
  IC50: 0.3 ± 0.1 µM
[14]; Homo sapiens, Hematopoietic stem cell, CD34+ cells from peripheral blood, read-out: CD34+ (PB) IC50
  IC50: 16.3 µM
[14]; ratio IC50 against CD34+ cells and MDA-MB-231 cells (SA)
  Therapeutic Window: 163X
